According to PubChem BioAssay (NCI):
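48-hour exposure; five concentrations; linearly interpolated endpoints. The concentration for 50% growth inhibition is given as GI50. The concentration for full growth arrest is given as TGI.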

Columns and labels:
Assay in all cases: NCI-60 cell line screen, 48 h; in the data active = GI50 below about 0.43 µM; inactive = the rest
[1] = test system: HS 578T breast
[2] = test system: HOP-92 NSCLC
[3] = test system: DU-145 prostate
[4] = test system: K-562 leukemia
[5] = test system: T-47D breast
[6] = test system: HCT-15 colon
[7] = test system: SNB-19 CNS
[8] = test system: SF-295 CNS
[9] = test system: RXF 393 renal
[10] = test system: NCI-H23 lung
[11] = test system: LOX IMVI melanoma
[12] = test system: OVCAR-8 ovarian
[13] = test system: SR leukemia
[14] = test system: SW-620 colon
[15] = test system: HCC-2998 colon
[16] = test system: MCF7 breast
[17] = test system: TK-10 renal
[18] = test system: IGROV1 ovarian
[19] = test system: OVCAR-5 ovarian
[20] = test system: HT29 colon
[21] = test system: PC-3 prostate
[22] = test system: 786-0 renal
[23] = test system: SF-539 CNS
[24] = test system: HCT-116 colon
[25] = test system: CAKI-1 renal
[26] = test system: SK-OV-3 ovarian
[27] = test system: BT-549 breast
[28] = test system: OVCAR-4 ovarian
[29] = test system: ACHN renal
[30] = test system: NCI-H460 lung
[31] = test system: A498 renal
[32] = test system: MDA-MB-231 breast
[33] = test system: SF-268 CNS
[34] = test system: U251 CNS
[35] = test system: OVCAR-3 ovarian
[36] = test system: COLO 205 colon
[37] = test system: SK-MEL-2 melanoma
[38] = test system: NCI-H226 lung
[39] = test system: SNB-75 CNS
[40] = test system: UO-31 renal
[41] = test system: HOP-62 NSCLC
[42] = test system: NCI/ADR-RES ovarian

Brc1cccc(/C=N/Nc2nc(N/N=C/c3cccc(Br)c3)nc(N3CCOCC3)n2)c1
29.6 µM: TGI [39]
4.78 µM: TGI [22]
8.51 µM: TGI [38]
66.9 µM: TGI [27]
inactive: GI50 [1] 3.6 µM | GI50 [2] 1.24 µM | GI50 [3] 1.31 µM | GI50 [5] 3.94 µM | GI50 [7] 12.9 µM | GI50 [8] 4.94 µM | GI50 [10] 4.5 µM | GI50 [11] 2.66 µM | GI50 [12] 5 µM | GI50 [14] 0.825 µM | GI50 [15] 3.06 µM | GI50 [16] 2.64 µM | GI50 [17] 8.75 µM | GI50 [18] 2.92 µM | GI50 [19] > 100 µM | GI50 [20] 0.609 µM | GI50 [21] 2.9 µM | GI50 [22] 0.529 µM | GI50 [23] 3.83 µM | GI50 [24] 0.78 µM | GI50 [25] 3.52 µM | GI50 [26] 14.7 µM | GI50 [27] 3.54 µM | GI50 [28] 4.89 µM | GI50 [29] 2.21 µM | GI50 [30] 3.43 µM | GI50 [32] 3.97 µM | GI50 [33] 8.4 µM | GI50 [34] 4.22 µM | GI50 [35] 3.81 µM | GI50 [36] 1.24 µM | GI50 [37] 2.43 µM | GI50 [38] 2.46 µM | GI50 [39] 4.54 µM | GI50 [40] 1.01 µM | GI50 [41] 8.07 µM | GI50 [42] 3.25 µM
58.7 µM: TGI [7]
64 µM: TGI [26]
4.26 µM: TGI [31]
> 100 µM: TGI [1] | TGI [3] | TGI [4] | TGI [5] | TGI [6] | TGI [8] | TGI [10] | TGI [11] | TGI [12] | TGI [14] | TGI [15] | TGI [16] | TGI [17] | TGI [18] | TGI [19] | TGI [20] | TGI [21] | TGI [23] | TGI [24] | TGI [25] | TGI [28] | TGI [29] | TGI [30] | TGI [32] | TGI [33] | TGI [34] | TGI [35] | TGI [36] | TGI [40] | TGI [42]
55.6 µM: TGI [41]
2.29 µM: TGI [13]
6.47 µM: TGI [37]
8.92 µM: TGI [2]
1.95 µM: TGI [9]
active: GI50 [4] 0.336 µM | GI50 [6] 0.423 µM | GI50 [9] 0.159 µM | GI50 [13] 0.16 µM | GI50 [31] 0.137 µM
